Assay results taken from patent US8759366B2, “Aminopyrimidines as SYK inhibitors” (Merck Sharp & Dohme Corp., priority 2009, dated 2014).

What follows are compounds tested against rhSYK (Homo sapiens (Human), UniProt P43405). Settings: read-out: rhSYK activity.

Row | Structure (SMILES) | IC50
1 | CCOC(=O)C1CCC(O)(c2ncc(-c3cc(C)cc(Nc4nccc(C(F)(F)F)n4)c3)s2)CC1 (mixture of isomers) [Example 32, ethyl 4-hydroxy-4-[5-(3-methyl-5-{[4-(trifluoromethyl)pyrimidin-2-yl]amino}phenyl)-1,3-thiazol-2-yl]cyclohexanecarboxylate] | < 100 nM
2 | CC(O)(CO)c1ncc(-c2cccc(Nc3nccc(C(F)(F)F)n3)c2)s1 (single isomer, unassigned) [Ex 5-2] | < 100 nM
3 | CC(O)(CO)c1ncc(-c2cccc(Nc3nccc(C(F)(F)F)n3)c2)s1 (single isomer, unassigned) [Ex 5-3] | < 100 nM
4 | Cc1cc(Nc2nccc(C(F)(F)F)n2)cc(-c2cnc(C(C)(O)c3ccc(CC(=O)O)cc3)s2)c1 (single isomer, unassigned) [Example 4A-59] | 100 to 1000 nM
5 | Cc1cc(Nc2nccc(C)n2)cc(-c2cnc(C3(O)CCC(C)(CC(=O)O)CC3)s2)c1 (single isomer, unassigned) [Example 4C-11] | < 100 nM
6 | Cc1cc(Nc2nccc(C)n2)cc(-c2cnc(C3(O)CCC(C)(CC(=O)O)CC3)s2)c1 (single isomer, unassigned) [Example 4C-12] | < 100 nM
7 | Cc1cc(Nc2nccc(C(F)(F)F)n2)cc(-c2cnc(C(O)C(F)(F)F)s2)c1 (single isomer, unassigned) [Example 6-3] | < 100 nM
8 | Cc1cc(Nc2nccc(C(F)(F)F)n2)cc(-c2cnc(C(O)C(F)(F)F)s2)c1 (single isomer, unassigned) [Example 6-4] | < 100 nM
9 | CCNC(=O)Nc1cc(Nc2nccc(C(F)(F)F)n2)cc(-c2cnc(C3CCC(C(N)=O)CC3)s2)c1 (single isomer, unassigned) [Example 20(2), 4-[5-(3-[(ethylcarbamoyl)amino]-5-{[4-(trifluoromethyl)pyrimidin-2-yl]amino}phenyl)-1,3-thiazol-2-yl]cyclohexanecarboxamide] | < 100 nM
10 | CC(=O)N1CCC(O)(c2ncc(-c3cccc(Nc4nccc(C(F)(F)F)n4)c3)s2)CC1 [4D-1] | < 100 nM
11 | OC1(c2ncc(-c3cccc(Nc4nccc(C(F)(F)F)n4)c3)s2)CCN(c2ccc(F)cc2)C1 (stereo not drawn) [4D-2] | 1000 to 10000 nM
12 | OC1(c2ncc(-c3cccc(Nc4nccc(C(F)(F)F)n4)c3)s2)CCN(C2CC2)CC1 [4D-3] | < 100 nM
13 | CCOC(=O)N1CCC(O)(c2ncc(-c3cccc(Nc4nccc(C(F)(F)F)n4)c3)s2)CC1 [4D-4] | < 100 nM
14 | CC(C)N1CCC(O)(c2ncc(-c3cccc(Nc4nccc(C(F)(F)F)n4)c3)s2)CC1 [4D-5] | 100 to 1000 nM
15 | Cc1cc(Nc2nccc(C)n2)cc(-c2cnc(C3(O)CCNC(=O)CC3)s2)c1 (stereo not drawn) [4D-7] | < 100 nM
16 | Cc1cc(Nc2nccc(C(F)(F)F)n2)cc(-c2cnc(C3(O)CCN(C4CC4)CC3)s2)c1 [4D-8] | < 100 nM
17 | Cc1cc(Nc2nccc(C(F)(F)F)n2)cc(-c2cnc(C3(O)CCN(c4ccccc4C)CC3)s2)c1 [4D-9] | 100 to 1000 nM
18 | Cc1cc(Nc2nccc(C(F)(F)F)n2)cc(-c2cnc(C3(O)CCN(c4cccc(F)c4)CC3)s2)c1 [4D-10] | 100 to 1000 nM
19 | Cc1cc(Nc2nccc(C(F)(F)F)n2)cc(-c2cnc(C3(O)CCN(c4ccccc4F)CC3)s2)c1 [4D-11] | 100 to 1000 nM
20 | Cc1cc(Nc2nccc(C(F)(F)F)n2)cc(-c2cnc(C3(O)CCN(c4ccc(F)cc4)CC3)s2)c1 [4D-12] | < 100 nM
21 | Cc1cc(Nc2nccc(C(F)(F)F)n2)cc(-c2cnc(C3(O)CCN(C(=O)CCCC(=O)O)CC3)s2)c1 [4D-13] | < 100 nM
22 | COC(=O)C1CC(O)(c2ncc(-c3cc(C)cc(Nc4nccc(C(F)(F)F)n4)c3)s2)CCN1C(=O)OC(C)(C)C (stereo not drawn) [4D-14] | 100 to 1000 nM
23 | Cc1cc(Nc2nccc(C(F)(F)F)n2)cc(-c2cnc(C3(O)CCN(C(=O)OC(C)(C)C)C(C(F)(F)F)C3)s2)c1 (stereo not drawn) [4D-15] | 100 to 1000 nM
24 | Cc1cc(Nc2nccc(C(F)(F)F)n2)cc(-c2cnc(C3(C#N)CCC4(CC3)OCCO4)s2)c1 [8-[5-(3-methyl-5-{[4-(trifluoromethyl)pyrimidin-2-yl]amino}phenyl)-1,3-thiazol-2-yl]-1,4-dioxaspiro[4.5]decane-8-carbonitrile] | < 100 nM
